Source: patent US5578570A, “Method of treating septic shock using thymosin β4” (The George Washington University Medical Center, priority 1994, dated 1996)

Assays:
Format in all cases: in vivo
[1] = tested on: endotoxic mice; test: Survival of Swiss Webster mice following lethal endotoxin dose and Tβ4; details: for Survival (No. mice alive): Table VII, endotoxin 60 mg/kg + Tβ4 50 μg 3x i.p., immediately following, 2 and 4 hrs after endotoxin, 10 mice at 0 hrs
Description: Swiss-Webster mice 4-6 weeks of age (20-25 g) were housed 6 per cage. The mice were divided into 2 groups: endotoxic mice (endotoxin 60 mg/kg i.p. in acute treatment) and endotoxic mice treated with Tβ4, 5 minutes and 2, 4, 6, 8, 10, 12, 14, 16, 18, 20, 22, 24 hours post administration of the endotoxin. Survival was recorded 2 times a day for 7 days.
Swiss-Webster mice 4-6 weeks of age (20-25 g) were divided into groups as follows.
1. Mice treated with a lethal dose of endotoxin (60 mg/kg).
2. […]
3. […]
4. […]

[2] = tested on: 6-keto-PGF1α; test: 6-keto-PGF1α plasma levels in mice after lethal dose of endotoxin; details: Table XI, endotoxin 60 mg/kg + Tβ4 100 μg administered simultaneously
Text: (§1) Using the same methods and materials as in examples 1-3, the effect which Tβ4 has on blood levels of IL-1α, TNF-α, PAG, Txβ2 and 6-keto-PGF1 α, which are pathological mediators of endotoxin induced lethality, was studied.

[3] = tested on: cGMP; test: cGMP cerebellar levels in mice treated with lethal doses of endotoxin; details: endotoxin 60 mg/kg i.p. + Tβ4 0.8 mg/kg i.p.
Text: (§2) The results presented in Tables III-V below show effects of Tβ4 respectively on mice cerebellar cGMP levels, blood serum TNF-α levels, and blood serum TNF-α and IL-1α levels.

[4] = tested on: malonyldialdehyde; test: Lipid peroxidation (blood malonyldialdehyde) in a septic shock model in rat; details: for Blood Levels of malonyldialdehyde: rats with septic shock + Tβ4 1 mg/rat × 3
Text: (§3) Using a septic shock model in rats (Sprague-Dawley, male, 200-225 g each), the effect of thymosin β4 alone and together with antibiotics was studied. Peritonitis was induced in rats in the following way. A 1-cm incision was made into the peritoneal which exposed the cecum. A tight ligature was placed around the cecum with 4-0 suture distal to the insertion of the small bowel, forming an area of devitalized tissue while maintaining bowel continuity. A puncture wound was made with 16-gauge needle into the anti-mesenteric surface of the cecum and a small amount of fecal contents was expressed through the wound. The cecum was replaced into the peritoneal cavity, and the anterior peritoneal wall and skin were closed with surgical staples. Each animal was given a bolus of normal saline (15 ml/kg) for hydration and allowed to recover overnight.
(§4) The results presented in Tables XV to XVIII below show effects of Tβ4 respectively on rat cytokine levels, blood malonyldialdehyde levels, glutathione levels and arachidonic acid metabolic levels.

[5] = tested on: T × β2; test: T×β2 plasma levels in mice after lethal dose of endotoxin; details: Table X, endotoxin 60 mg/kg + Tβ4 100 μg administered simultaneously
Text: as §1

[6] = tested on: Rats with Septic Shock; test: Survival of Sprague-Dawley rats in septic shock model (peritonitis); details: for Survival of rats (number alive): Table XIV, septic shock + antibiotic (gentamicin sulfate, 1 mg/rat) + thymosin β4 1 mg/rat × 3 (0, 2, 4 hr post induction of peritonitis), 10 rats at 0 hr; for Number of Rats Alive: septic shock + Tβ4 1 mg/rat × 3, 10 rats at 0 h
Text: as §3

[7] = tested on: IL-1α; test: Serum IL-1α levels in mice treated with lethal dose of endotoxin; details: Table V; pretreatment (SOD 3.3 × 10^4 μ/kg, 30 minutes before endotoxin; Tβ4 100 μg/mice); blood collected 1 hr after endotoxin
Text: as §2, §1

[8] = tested on: TNF-α; test: Serum TNF-α levels in mice treated with lethal doses of endotoxin; details: for TNF-α (serum level): Table XIII, endotoxin 60 mg/kg + Tβ4 100 μg administered immediately after endotoxin
Text: as §2, §1

[9] = tested on: 6-keto-PGF1; test: 6-keto-PGF1 levels in a septic shock model in rat; details: rats with septic shock + Tβ4 1 mg/rat × 3
Text: as §3, §4

[10] = tested on: blood free radical levels; test: Blood free radical levels; details: compared with SOD
[11] = tested on: glutathione; test: Glutathione levels in a rat septic shock model; details: for RBC GSH: rats with septic shock + 1 mg/rat × 3
Text: as §3, §4

[12] = tested on: PAF; test: PAF blood levels in mice after lethal dose of endotoxin; details: endotoxin 60 mg/kg + Tβ4 100 μg administered simultaneously; for PAF (plasma levels): Table IX; for PAF (serum levels): Table XII
Text: as §1

[13] = during sepsis, with Tβ4 administration

Thymosin β4 [Tβ4]
Survival (No. mice alive) ([1]; 5 days): 7 | Survival (No. mice alive) ([1]; 6 days): 7 | survival rate ([1]; Tβ4 administered 3 times post administration of endotoxin): 100% | most effective protective dose ([1]; administered three times): 100 µg | survival of mice treated with endotoxin (in words) ([1]; administered three times in doses of 50 μg and 20 μg): partially increased the survival | survival rate ([1]; lethal endotoxin shock, endotoxin 60 mg/kg i.p., Example 1): ≤ 100% | 6-keto-PGF1α (plasma levels) ([2]; 0.5 hr.): 141 ± 9 pg/mL | 6-keto-PGF1α (plasma levels) ([2]; 1 hr): 261 ± 23 pg/mL | 6-keto-PGF1α (plasma levels) ([2]; 2 hr): 147 ± 19 pg/mL | 6-keto-PGF1α (plasma levels) ([2]; 3 hr): 121 ± 13 pg/mL | Cerebellar cortex cyclic GMP [3]: 12.1 ± 0.9 pmol per mg/protein | peroxidation of lipids in blood (malonyldialdehyde), in words [4, 13]: returned to normal or about normal | Blood Levels of malonyldialdehyde ([4]; first value column): 19.6 ± 1.7 nNol MDA | Blood Levels of malonyldialdehyde ([4]; second value column): 16.8 ± 1.5 nNol MDA | T × β2 (plasma levels) ([5]; 0.5 hr.): 209 ± 9,5 pg/ml | T × β2 (plasma levels) ([5]; 1 hr): 607 ± 53 pg/mL | T × β2 (plasma levels) ([5]; 2 hr): 196 ± 18 pg/mL | T × β2 (plasma levels) ([5]; 3 hr): 112 ± 9 pg/mL | Survival of rats (number alive) ([6]; 24 hr): 4 | Survival of rats (number alive) ([6]; 48 hr): 3 | Survival of rats (number alive) ([6]; 72 hr): 3 | Number of Rats Alive ([6]; Table XIX, 24 h): 3 | Number of Rats Alive ([6]; Table XIX, 48 h): 3 | Number of Rats Alive ([6]; Table XIX, 72 h): 3 | Number of Rats Alive ([6]; Table XX, 24 h): 4 | Number of Rats Alive ([6]; Table XX, 48 h): 3 | Number of Rats Alive ([6]; Table XX, 72 h): 3 | Serum IL-1α [7]: 298 ± 20 pg/mL | Serum TNF-α ([8]; Table IV, endotoxin 60 mg/kg + Tβ4 100 μg, 1 hr): 823 ± 79 pg/mL | Serum TNF-α ([8]; Table IV, endotoxin 60 mg/kg + Tβ4 100 μg, 3 hr): 535 ± 47 pg/mL | Serum TNF-α ([8]; Table IV, endotoxin 60 mg/kg + Tβ4 100 μg, 5 hr): 480 ± 45 pg/mL | Serum TNF-α ([8]; Table V, pretreatment (SOD 3.3 × 10^4 μ/kg, 30 minutes before endotoxin; Tβ4 100 μg/mice), blood collected 1 hr after endotoxin): 321 ± 26.2 pg/mL | TNF-α (serum level) ([8]; 1 hr): 807 pg/mL | TNF-α (serum level) ([8]; 3 hr): 591 pg/mL | TNF-α (serum level) ([8]; 5 hr): 496 pg/mL | 6-keto-PGF1 [9]: 829 ± 59 pg/mL | blood free radical levels (in words) [10]: reduce blood free radical levels almost as much as SOD | circulating blood levels of glutathione (in words) [11, 13]: returns circulatory gluthathine levels to normal or about normal | RBC GSH ([11]; first value column): 1.45 ± 0.11 μmoles/ml cells | RBC GSH ([11]; second value column): 1.39 ± 0.12 μmoles/ml cells | PAF (plasma levels) ([12]; 0.5 hr.): 63 ± 7 pg/mL | PAF (plasma levels) ([12]; 1 hr): 161 ± 17 pg/mL | PAF (plasma levels) ([12]; 2 hr): 66 ± 5 pg/mL | PAF (plasma levels) ([12]; 3 hr): 46 ± 5 pg/mL | PAF (serum levels) ([12]; 1 hr): 807 pg/mL | PAF (serum levels) ([12]; 3 hr): 591 pg/mL | PAF (serum levels) ([12]; 5 hr): 496 pg/mL
